Measurements from US20250270584A1, “Gene editing to provide insect resistance in crops” (The Regents of the University of California, priority 2022, published 2025).

Tests used:
OsGLR3.1 = biological target: T1, OsGLR3.1 (Oryza sativa subsp. japonica, UniProt Q7XP59); test: Single-cell Ca2+ imaging in COS-7 cells expressing OsGLR3.1; format: cell-based; conditions: COS-7 cells expressing OsGLR3.1 alone, external Glu application
T1 construct: expressed in transfected cells; host or cells: COS-7
T1 sequence (Q7XP59 21-938): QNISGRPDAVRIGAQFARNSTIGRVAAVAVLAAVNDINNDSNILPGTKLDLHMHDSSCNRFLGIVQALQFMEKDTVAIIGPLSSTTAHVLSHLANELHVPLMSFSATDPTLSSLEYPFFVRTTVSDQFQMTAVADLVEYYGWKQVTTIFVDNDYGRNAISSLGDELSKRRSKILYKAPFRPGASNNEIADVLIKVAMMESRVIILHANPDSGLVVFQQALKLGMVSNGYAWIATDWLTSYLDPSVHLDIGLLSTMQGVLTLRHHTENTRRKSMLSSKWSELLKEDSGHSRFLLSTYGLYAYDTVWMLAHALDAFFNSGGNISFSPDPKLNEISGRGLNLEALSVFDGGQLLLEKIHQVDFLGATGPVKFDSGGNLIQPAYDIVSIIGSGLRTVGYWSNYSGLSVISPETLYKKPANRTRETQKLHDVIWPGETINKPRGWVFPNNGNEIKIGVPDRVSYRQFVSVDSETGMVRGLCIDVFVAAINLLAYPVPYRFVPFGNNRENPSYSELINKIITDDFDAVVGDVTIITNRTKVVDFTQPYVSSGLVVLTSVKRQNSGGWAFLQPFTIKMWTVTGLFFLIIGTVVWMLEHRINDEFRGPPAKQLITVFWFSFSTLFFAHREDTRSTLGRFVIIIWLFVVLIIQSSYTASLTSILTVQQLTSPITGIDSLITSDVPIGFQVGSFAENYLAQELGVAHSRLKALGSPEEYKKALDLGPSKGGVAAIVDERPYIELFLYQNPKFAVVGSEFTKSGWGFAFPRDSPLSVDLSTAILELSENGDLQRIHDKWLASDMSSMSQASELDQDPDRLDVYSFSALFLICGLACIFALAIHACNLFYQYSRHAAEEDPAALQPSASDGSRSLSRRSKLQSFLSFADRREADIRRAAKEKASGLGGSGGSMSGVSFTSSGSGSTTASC
Protocol: (§1) The full-length coding sequences were amplified from cDNA of Arabidopsis (GLR3.1, GLR3.3, and GLR3.6), B. oleracea (BoGLR3.3) or O. sativa (OsGLR3.1). The coding sequences of GLR3.3-CD2 and GLR3.3-T3 were generated through site-directed mutagenesis with GLR3.3 as template. All coding sequences respectively inserted into a dual-promoter vector pBudCE4.1 (Invitrogen) with coding sequence of GCaMP6s for co-expression in […] or COS-7 cells as previously described. Mammalian cells were cultured in DMEM supplemented with 10% FBS in a 5% CO2 incubator at 37° C. under controlled humidity, and transfected using a Lipofectamine 3000 Transfection Reagent kit (Invitrogen).
(§2) COS-7 cells expressing GCaMP6s together with various GLR proteins were monitored by a Zeiss AxioObserver ZI inverted microscope (Ivision 4.5 software) with 2-s intervals under a 20× objective as previously described. The standard solution for Ca^2+ imaging contained 120 mM NaCl, 3 mM KCl, 1 mM MgCl2, 1.2 mM NaHCO3, 10 mM glucose, 10 mM HEPES, pH 7.5. At 60 s after initiation of the imaging procedure, the bath was perfused using a peristaltic pump with the standard solution supplemented with 100 mM glutamate to elicit Ca^2+ entry through active channels.

GLR3.3 channel [1] = biological target: T2, GLR3.3 channel (Arabidopsis thaliana, UniProt Q9C8E7); test: Single-cell Ca2+ imaging in COS-7 cells expressing GLR3.3; format: cell-based; parameters: expressed in transfected cells; host or cells: COS-7 (Ca2+ imaging); conditions: COS-7 cells expressing GLR3.3 alone, external Glu application (100 mM glutamate)
T2 sequence (Q9C8E7 24-933): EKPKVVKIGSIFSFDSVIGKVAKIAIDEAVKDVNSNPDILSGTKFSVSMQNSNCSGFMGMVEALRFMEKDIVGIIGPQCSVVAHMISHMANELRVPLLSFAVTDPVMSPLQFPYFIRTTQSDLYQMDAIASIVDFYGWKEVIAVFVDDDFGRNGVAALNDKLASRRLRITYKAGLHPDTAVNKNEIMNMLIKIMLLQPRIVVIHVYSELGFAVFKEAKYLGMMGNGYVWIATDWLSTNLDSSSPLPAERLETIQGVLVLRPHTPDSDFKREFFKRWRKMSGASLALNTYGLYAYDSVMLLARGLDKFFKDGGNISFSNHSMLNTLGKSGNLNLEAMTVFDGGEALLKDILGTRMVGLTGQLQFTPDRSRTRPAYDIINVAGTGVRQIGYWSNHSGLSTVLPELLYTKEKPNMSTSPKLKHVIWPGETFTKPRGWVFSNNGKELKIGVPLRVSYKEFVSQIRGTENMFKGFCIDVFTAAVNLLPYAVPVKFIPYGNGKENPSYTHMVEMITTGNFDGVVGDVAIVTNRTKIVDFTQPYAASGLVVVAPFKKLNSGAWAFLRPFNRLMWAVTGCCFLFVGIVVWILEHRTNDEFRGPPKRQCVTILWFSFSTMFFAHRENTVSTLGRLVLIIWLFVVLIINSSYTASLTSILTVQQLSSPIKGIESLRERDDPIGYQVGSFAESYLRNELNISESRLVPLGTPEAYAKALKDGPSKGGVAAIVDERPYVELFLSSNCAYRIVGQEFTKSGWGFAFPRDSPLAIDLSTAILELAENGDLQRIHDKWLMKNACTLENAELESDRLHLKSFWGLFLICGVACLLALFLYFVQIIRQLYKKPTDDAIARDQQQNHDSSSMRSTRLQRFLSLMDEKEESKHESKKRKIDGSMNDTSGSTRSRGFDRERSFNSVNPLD
Protocol: as §1, §2

GLR3.3 channel [2] = biological target: T2, GLR3.3 channel; test: Whole-cell patch-clamp recording in HEK293 cells expressing GLR3.3; format: cell-based; parameters: expressed in transfected cells; host or cells: COS-7 (Ca2+ imaging) / HEK293 (patch clamp); conditions: HEK293 cells expressing GLR3.3 alone, free internal Ca2+ in pipette 1 μM, external Glu
Protocol: The whole-cell patch-clamp recordings were performed on an Axopatch 200B patch-clamp configuration with a Digidata 1550 digitizer (Axon Instruments) as described previously. Clampex 10.7 and Clampfit 10.7 software (Axon Instruments) were used for data acquisition and analysis.
To record Ca^2+ currents across plasma membrane of HEK293 cells, the bath solution contained 100 mM Na-glutamate, 40 mM NaCl, 5 mM KCl, 2 mM MgCl2, 10 mM CaCl2, 10 mM HEPES, and 10 mM glucose (pH 7.5, adjusted with NaOH). The pipette solution with 0 nM free Ca^2+ contained 140 mM CsCl, 5 mM EGTA, and 10 mM HEPES (pH 7.5, adjusted with CsOH), while the pipette solution with 1 μM free Ca^2+ contained 140 mM CsCl, 5 mM EGTA, 4.85 mM CaCl2) and 10 mM HEPES (pH 7.5, adjusted with CsOH). Free Ca^2+ was calculated with Webmaxc Standard software (https://somapp.ucdmc.ucdavis.edu/pharmacology/bers/maxchelator/webmaxc/webmaxcS.htm). A ramp voltage protocol of 2-s duration from −180 mV to +20 mV (holding potential 0 mV) was applied 1 min after achieving a whole-cell configuration, and currents were recorded every 20 s, with 5 repeats in total for each cell. The five current traces were used for statistical analysis to produce average current-voltage curves.

BoGLR3.3 = test: Single-cell Ca2+ imaging in COS-7 cells expressing BoGLR3.3; format: cell-based, Brassica oleracea; conditions: COS-7 cells expressing BoGLR3.3 alone, external Glu application
Protocol: as §1, §2

CaM7 = biological target: T3, CaM7 (Arabidopsis thaliana, UniProt P59220); test: ITC (isothermal titration calorimetry) assay of CBD peptides with 6His-CaM7; format: binding; conditions: ratio of KD values
T3 construct: made in house; host or cells: Escherichia coli BL21 (DE3)
Protocol: ITC was carried out at 25° C. on a MicroCal iTC200 instrument (GE Healthcare). 250 μM of peptides were titrated against 20 μM of 6His-CaM7 proteins (purified by size-exclusion chromatography using Superdex 200 Increase 10/300 GL, GE Healthcare) in the reaction buffer (25 mM HEPES, 100 mM NaCl, pH 7.5) with addition of 1 mM Ca^2+ or 2 mM EGTA. Titrations were performed by an automated sequence of 20 injections spaced at 150-s intervals to ensure complete equilibration, and raw data were analyzed with Origin software (version 7.0) supplied with the instrument.

## N[C@@H](CCC(=O)O)C(=O)O [Glu, glutamate]
OsGLR3.1
  Glu-activated [Ca2+]cyt change: rapid [Ca^2+]cyt increases
GLR3.3 channel [1]
  Glu-activated [Ca2+]cyt change: rapid [Ca^2+]cyt increases
GLR3.3 channel [2]
  Glu-induced currents: large inward currents
BoGLR3.3
  Glu-activated [Ca2+]cyt change: rapid [Ca^2+]cyt increases

## CC(C)C[C@H](NC(=O)[C@H](CO)NC(=O)[C@H](CC(C)C)NC(=O)[C@H](Cc1ccccc1)NC(=O)[C@H](CCCNC(=N)N)NC(=O)[C@H](CCC(N)=O)NC(=O)[C@H](CC(C)C)NC(=O)[C@H](CCCNC(=N)N)NC(=O)[C@@H](NC(=O)[C@H](CO)NC(=O)[C@H](CC(=O)O)NC(=O)[C@H](Cc1c[nH]cn1)NC(=O)[C@H](CC(N)=O)NC(=O)[C@H](CCC(N)=O)NC(=O)[C@H](CCC(N)=O)NC(=O)[C@H](CCC(N)=O)NC(=O)[C@@H](N)CC(=O)O)[C@@H](C)O)C(=O)O [mutated CBD peptide]
CaM7
  CaM binding affinity lower than that of wild type CBD: approximately 10 fold
